Experimental data taken from patent US8227207B2, “Bioactive peptides derived from the proteins of egg white by means of enzymatic hydrolysis” (Consejo Superior de Investigaciones Cientifcas, priority 2004, dated 2012).
“Also recorded” adds a separate entry of the source. Residues, ends and D or L forms follow the SMILES beside them.

What was measured:
[1] = system: spontaneously hypertensive rats (SHR); test: Antihypertensive activity: systolic arterial pressure (tail cuff) in spontaneously hypertensive rats; assay type: in vivo, rat
Method: (§1) The effect is studied of various identified peptides and of some products containing them (for example egg white hydrolysed with pepsin for 3 hours and the fraction of it less than 3000 Da) on the arterial pressure of spontaneously hypertensive rats (SHR) and Wistar-Kyoto rats (WKY) which are the normotense controls for the SHR.
(§2) This study is conducted with SHR (10) and WKY of 17-24 weeks old and weight between 300 and 350 g, coming from Charles River Laboratories España, S. A. The rats are kept in cages of five by five and maintained at a stable temperature of 25° C. with light-dark cycles of 12 hours, ingesting freely available water and food. In order to carry out the measurement of systolic arterial pressure (SAP) “tail cuff” equipment is used (Le5001, Letica) which automatically provides a digital value of the SAP and records and facilitates the cardiac frequency of the animals. Various measurements are made and the average of all of them is obtained in order to achieve a reliable value of the SAP. Before positioning the cuff and transducer in the tail of the rats, the rats are exposed to a temperature of close to 30° C. in order to facilitate dilation of the caudal artery. Also, in order to ensure the reliability of the measurement, the animals are made to get used to the procedure for two weeks prior to conducting each assay in question.
(§3) The administration of the products to be assayed is done by means of an intragastric probe in a time margin of between 9 and 10 o'clock in the morning. The SHR used for the study had SAP values of between 230 and 280 mm Hg. The WKY used for the study at that moment had SAP values of between 160 and 200 mm Hg. Measurements of the SAP were taken from the animals periodically, every 2 hours, up to 8 hours post-administration of the products to be assayed; in addition, a SAP measurement was taken 24 hours after the administration of those products. As negative control (in order to establish the circadian variation of the SAP in probed rats) the measurements of the SAP obtained in rats which had been administered 1 ml of water by means of intragastric probe were used. As positive control, the measurements of the SAP obtained in rats which had been administered 50 mg/kg of Captopril (prototype ACEI drug) by means of intragastric probe were used. This dose of Captopril was administered to each rat in a volume of 1 ml. In order to establish the effect of the unhydrolysed egg white on the arterial pressure of the animals, similar assays to those described above were conducted, in which the animals were treated by the same procedure with 200 mg/kg of previously freeze-dried egg white (reference).
The results obtained are grouped and the mean±the standard error of measurement (SEM) is obtained for a minimum of 9 homogenous assays. The data of the treated animals are always compared with the data deemed to be a negative control. In order to compare them and obtain the statistical significance, Student's t-test for unpaired data is used and the difference for values of p<0.05 is considered significant.

[2] = system: Wistar-Kyoto rats (WKY); test: Systolic arterial pressure (tail cuff) in normotense Wistar-Kyoto rats; assay type: in vivo, rat; conditions: highest dose used, intragastric probe
Method: as §1, §2, §3
The results obtained are grouped and the mean±the standard error of measurement (SEM) is obtained for a minimum of 9 homogenous assays. […]

[3] = system: spontaneously hypertensive rats (SHR); test: Anti-hypertensive activity, systolic arterial pressure (SAP), in spontaneously hypertensive rats; assay type: in vivo, rat; conditions: oral, intragastric probe, Captopril 50 mg/kg, SEQ. ID. No 6 and 3 0.5-2 mg/kg, SEQ. ID. No 2 1-4 mg/kg
Method: (§4) The effect is studied of various identified peptides and of some products containing them (for example egg white hydrolysed with pepsin for 3 hours and the fraction of it less than 3000 Da) on the arterial pressure of spontaneously hypertensive rats (SHR) and Wistar-Kyoto rats (WKY) which are the normotense controls for the SHR. This study is conducted with SHR (10) and WKY of 17-24 weeks old and weight between 300 and 350 g, coming from Charles River Laboratories […]. The rats are kept in cages of five by five and maintained at a stable temperature of 25° C. with light-dark cycles of 12 hours, ingesting freely available water and food. In order to carry out the measurement of systolic arterial pressure (SAP) “tail cuff” equipment is used (Le5001, Letica) which automatically provides a digital value of the SAP and records and facilitates the cardiac frequency of the animals. Various measurements are made and the average of all of them is obtained in order to achieve a reliable value of the SAP. Before positioning the cuff and transducer in the tail of the rats, the rats are exposed to a temperature of close to 30° C. in order to facilitate dilation of the caudal artery. Also, in order to ensure the reliability of the measurement, the animals are made to get used to the procedure for two weeks prior to conducting each assay in question. The administration of the products to be assayed is done by means of an intragastric probe in a time margin of between 9 and 10 o'clock in the morning. The SHR used for the study had SAP values of between 230 and 280 mm Hg. The WKY used for the study at that moment had SAP values of between 160 and 200 mm Hg. Measurements of the SAP were taken from the animals periodically, every 2 hours, up to 8 hours post-administration of the products to be assayed; in addition, a SAP measurement was taken 24 hours after the administration of those products. As negative control (in order to establish the circadian variation of the SAP in probed rats) the measurements of the SAP obtained in rats which had been administered 1 ml of water by means of intragastric probe were used. […] This dose of Captopril was administered to each rat in a volume of 1 ml. In order to establish the effect of the unhydrolysed egg white on the arterial pressure of the animals, similar assays to those described above were conducted, in which the animals were treated by the same procedure with 200 mg/kg of previously freeze-dried egg white (reference). The results obtained are grouped and the mean±the standard error of measurement (SEM) is obtained for a minimum of 9 homogenous assays. The data of the treated animals are always compared with the data deemed to be a negative control. […]

[4] = system: Wistar-Kyoto rats (WKY); test: Effect on systolic arterial pressure (SAP) in normotense Wistar-Kyoto rats; assay type: in vivo, rat; conditions: intragastric probe, highest dose used: SEQ. ID. No 6 and 3 2 mg/kg, SEQ. ID. No 2 4 mg/kg, Captopril 50 mg/kg
Method: as §4

[5] = system: spontaneously hypertensive rats (SHR); conditions: ovokinin oral 100 mg/kg, ovokinin (2-7) 10 mg/kg; cited from earlier work
[6] = system: spontaneously hypertensive rats (SHR); conditions: literature, cited from earlier work; for anti-hypertensive activity relative to ovokinin (2-7): following administration to SHRs
[7] = system: angiotensin converting enzyme (ACE); conditions: result in words, literature; cited from earlier work
[8] = system: angiotensin converting enzyme (ACE) (EC 3.4.15.1, Sigma); test: In vitro inhibitory activity of the angiotensin converting enzyme (ACEI activity); assay type: biochemical; conditions: result in words
Method: Measurement of the Inhibitory Activity of the Angiotensin Converting Enzyme (ACEI Activity)
The inhibitory activity of the angiotensin converting enzyme (ACE) is measured in vitro according to the method of D. W. Cushman and H. S. Cheung (Spectrophotometric assay and properties of the angiotensin-converting enzyme of rabbit lung. Biochemical Pharmacology, 1971, 20: 1637-1648), later on modified by Y. K. Kim, S. Yoon, D. Y. Yu, B. Lönnerdal and B. H. Cheung (Novel angiotensin-I-converting enzyme inhibitory peptides derived from recombinant human αs1-casein expressed in Escherichia coli, Journal of Dairy Research 1999, 66, 431-439).
The substrate hippuryl histidyl leucine (HHL, Sigma Chemicals Co., St. Louis, Mo., USA) is dissolved in a 0.1 M borate buffer with 0.3 M NaCl pH 8.3 to obtain a final concentration of 5 mM. To 100 μl of substrate are added 40 μl of each of the samples whose ACEI activity it is wished to determine. The ACE enzyme (EC 3.4.15.1, Sigma) is added, dissolved in 50% glycerol and diluted 1/10 in bidistilled water at the moment of conducting the assay. The reaction is carried out at 37° C. for 30 minutes in a water-bath. The enzyme is deactivated by lowering the pH with 150 μl of 1 N HCl. The hippuric acid formed is extracted with 1000 μl of ethyl acetate. Following vortex stirring for 20 seconds, it is centrifuged at 4000 rpm for 10 minutes at room temperature. 750 μl of the organic phase are taken and evaporated by heating at 95° C. for 10 minutes. The hippuric acid residue is redissolved in 800 μl of bidistilled water and, following stirring for 20 seconds, the absorbency at 228 nm is measured in a Dur-70 spectrophotometer from Beckman Instruments, Inc., Fullerton, USA.
In order to calculate the percentage of ACEI activity, the following formula is used
The blank is used for correcting the background absorbency. This contains substrate, enzyme and 20 μl of bidistilled water in place of the sample, and the reaction is halted at zero time. The control implies a hundred percent of the enzymatic action on the substrate in the absence of inhibitors and contains 20 μl of water in place of the sample and is incubated the same time as the sample.
The results are presented as the IC50 (μM or μg/ml) or concentration at which 50% of the enzyme's activity is inhibited. The concentration of protein is determined by means of the bicinchonomic acid (BCA) assay (Pierce, Rockford, Ill., USA) using bovine seroalbumin as reference.

| Structure (SMILES) | anti-hypertensive activity / drop in SAP [3] | effect on SAP [4] | ACEI activity [7] | ACEI activity in vitro [8] | also measured |
| --- | --- | --- | --- | --- | --- |
| C[C@H](CS)C(=O)N1CCC[C@H]1C(=O)O [Captopril, reference compound] | pronounced drop in SAP in the SHR | none of these compounds modifies the SAP of WKY rats | – | – | time of maximum drop in SAP after administration ([1]; intragastric probe): 6 h; drop in systolic arterial pressure (SAP) / anti-hypertensive activity (in words) ([1]; single administration by intragastric probe): pronounced drop in SAP; change in SAP in normotense rats (in words) [2]: none of these compounds modifies the SAP |
| CC(C)C[C@H](N)C(=O)N[C@@H](Cc1c[nH]c2ccccc12)C(=O)O [LW] | – | – | – | – | anti-hypertensive / vasodilatory activity in SHR (in words) [5]: displayed anti-hypertensive activity; anti-hypertensive activity ([6]; SHR, ovokinin orally 100 mg/kg): displayed anti-hypertensive activity in spontaneously hypertensive rats (SHR) |
| N=C(N)NCCC[C@H](N)C(=O)N1CCC[C@H]1C(=O)N[C@@H](Cc1ccccc1)C(=O)N[C@@H](Cc1cnc[nH]1)C(=O)N1CCC[C@H]1C(=O)N[C@@H](Cc1ccccc1)C(=O)O [RPFHPF] (H-RPFHPF-OH) | – | – | neither ovokinin (2-7), nor its RPFHPF (SEQ. ID. NO: 10) or RPLKPW (SEQ. ID. NO: 11) derivatives possessed ACEI activity | – | minimum effective dose ([6]; SHR): 1 mg/kg; anti-hypertensive activity relative to ovokinin (2-7) [6]: 10 times |
| CC(C)C[C@H](NC(=O)[C@@H]1CCCN1C(=O)[C@@H](N)CCCNC(=N)N)C(=O)N[C@@H](CCCCN)C(=O)N1CCC[C@H]1C(=O)N[C@@H](Cc1c[nH]c2ccccc12)C(=O)O [RPLKPW] (H-RPLKPW-OH) | – | – | neither ovokinin (2-7), nor its RPFHPF (SEQ. ID. NO: 10) or RPLKPW (SEQ. ID. NO: 11) derivatives possessed ACEI activity | – | minimum effective dose ([6]; SHR): 0.1 mg/kg; anti-hypertensive activity relative to ovokinin (2-7) [6]: 100 times |
| CC[C@H](C)[C@H](N)C(=O)N[C@H](C(=O)N[C@@H](Cc1ccccc1)C(=O)O)C(C)C [SEQ. ID. No 2, IVF] | possess anti-hypertensive activity in spontaneously hypertensive rats (SHR); also recorded: display anti-hypertensive activity in rats | none of these compounds modifies the SAP of WKY rats | – | potent ACEI activity in vitro | – |
| CC(C)C[C@H](NC(=O)[C@H](Cc1ccccc1)NC(=O)[C@@H]1CCCN1C(=O)[C@H](Cc1cnc[nH]1)NC(=O)[C@H](CC(=O)O)NC(=O)[C@H](C)NC(=O)[C@@H](N)CCCNC(=N)N)C(=O)O [SEQ. ID. No 3, RADHPFL] (H-RADHPFL-OH) | possess anti-hypertensive activity in spontaneously hypertensive rats (SHR); also recorded: display anti-hypertensive activity in rats | none of these compounds modifies the SAP of WKY rats | – | potent ACEI activity in vitro | – |
| CC[C@H](C)[C@H](NC(=O)[C@@H]1CCCN1C(=O)[C@H](Cc1ccc(O)cc1)NC(=O)[C@H](CCCNC(=N)N)NC(=O)[C@H](CCC(=O)O)NC(=O)[C@H](CCC(=O)O)NC(=O)[C@H](C)NC(=O)[C@@H](N)Cc1ccc(O)cc1)C(=O)N[C@@H](CC(C)C)C(=O)O [SEQ. ID. No 6] (H-YAEERYPIL-OH) | possess anti-hypertensive activity in spontaneously hypertensive rats (SHR); also recorded: display anti-hypertensive activity in rats | none of these compounds modifies the SAP of WKY rats | – | potent ACEI activity in vitro | – |
| C[C@H](NC(=O)[C@@H](N)CCCNC(=N)N)C(=O)N[C@@H](CC(=O)O)C(=O)N[C@@H](Cc1cnc[nH]1)C(=O)N1CCC[C@H]1C(=O)N[C@@H](Cc1ccccc1)C(=O)O [ovokinin (2-7), RADHPF] (H-RADHPF-OH) | – | – | neither ovokinin (2-7), nor its RPFHPF (SEQ. ID. NO: 10) or RPLKPW (SEQ. ID. NO: 11) derivatives possessed ACEI activity | – | anti-hypertensive / vasodilatory activity in SHR (in words) [5]: exerted a potent vasodilatory action; vasodilatory action ([6]; SHR, doses of 10 mg/kg): potent vasodilatory action in SHR |
